Values of other authors, collected in patent US20080253970A1, “Stable Pharmaceutical Drug Products” (Schering Corporation, priority 2007, published 2008).

Structure (SMILES)	solubility in ethanol
CC1(C)O[C@@H]2C[C@H]3[C@@H]4C[C@H](F)C5=CC(=O)C=C[C@]5(C)[C@H]4[C@@H](O)C[C@]3(C)[C@]2(C(=O)CO)O1 [flunisolide]	partially soluble in ethanol
C[C@@H]1C[C@H]2[C@@H]3CCC4=CC(=O)C=C[C@]4(C)[C@@]3(Cl)[C@@H](O)C[C@]2(C)[C@@]1(OC(=O)c1ccco1)C(=O)CCl [mometasone furoate, 9,21-Dichloro-11(beta), 17-dihydroxy-16(alpha)-methylpregna-1,4-diene-3,20-dione17-(2 Furoate)]	partially soluble in ethanol
C[N+]1(C)[C@@H]2C[C@@H](OC(=O)C(O)(c3cccs3)c3cccs3)C[C@H]1[C@@H]1O[C@@H]12 [tiotropium]	partially soluble in ethanol
